Solubility data for 7 compounds are collected here from US10483329B2, “Hole transporting material, hole transporting layer, OLED display panel electronic device comprising the same” (SHANGHAI TIANMA AM-OLED CO., LTD., priority 2016, dated 2019).

A short description of the data set: Solubility in NMP. It is filed as physicochemical. To be noted: organic solvent or mixture; solvent NMP (N-methylpyrrolidone).

Values after ≈ are worked out from the molar mass of the structure shown.

Usually solubility stands for the dissolved amount per volume that the medium holds. For the compound `CC1(C)c2cc(N(c3ccc(-c4ccccc4)cc3)c3ccc(-c4ccccc4)cc3)ccc2-c2ccc(N(c3ccc(-c4ccccc4)cc3)c3ccc(-c4ccccc4)cc3)cc21` [Comparison Example 2, reference compound], the solubility stood at 5.2 mg/mL (≈ 6.24 mM). The figure for `Cc1cccc(C)c1-c1ccc(N(c2ccc(-c3ccccc3)cc2)c2ccc(-c3ccc(N(c4ccc(-c5ccccc5)cc4)c4ccc(-c5c(C)cccc5C)cc4)cc3)cc2)cc1` [Comparison Example 3, reference compound] is 2.9 mg/mL (≈ 3.42 mM); for `c1ccc(-c2ccc(N(c3ccc(-c4ccccc4)cc3)c3ccc(N(c4ccc(-c5ccccc5)cc4)c4ccc(-c5ccccc5)cc4)cc3)cc2)cc1` [Comparison Example 4, reference compound] it is 2.2 mg/mL (≈ 3.07 mM).

As for `Cc1cc(-c2ccc(N(c3ccc(-c4ccccc4)cc3)c3ccc4c(c3)C(C)(C)c3ccccc3-4)cc2)cc(C)c1N(c1ccc(-c2ccccc2)cc1)c1ccc2c(c1)C(C)(C)c1ccccc1-2` [Example 1], the solubility was 22 mg/mL (≈ 24.4 mM).

With `Cc1cccc(-c2ccc(N(c3ccc(-c4cccc(C)c4)cc3)c3ccc4c(c3)C(C)(C)c3cc(N(c5ccc(-c6cccc(C)c6)cc5)c5ccc(-c6cccc(C)c6)cc5)ccc3-4)cc2)c1` [Example 2], the solubility amounted to 28 mg/mL (≈ 31.5 mM).

Take `Cc1cccc(C)c1-c1ccc(N(c2ccc3c(c2)C(C)(C)c2ccccc2-3)c2ccc3c(c2)C(C)(C)c2cc(N(c4ccc(-c5c(C)cccc5C)cc4)c4ccc5c(c4)C(C)(C)c4ccccc4-5)ccc2-3)cc1` [Example 3]: the solubility was found to be 30 mg/mL (≈ 30.9 mM). In the case of `Cc1cc(N(c2ccc3c(c2)C(C)(C)c2ccccc2-3)c2ccc3c(c2)C(C)(C)c2ccccc2-3)ccc1-c1ccc(N(c2ccc3c(c2)C(C)(C)c2ccccc2-3)c2ccc3c(c2)C(C)(C)c2ccccc2-3)cc1` [Example 4], the solubility was 35 mg/mL (≈ 36.2 mM).
